These are literature values, as cited in patent US20160331734A1, “SUBSTITUTED N-ARYL PYRIDINONES” (AUSPEX PHARMACEUTICALS, INC., priority 2014, published 2016).

The conditions of series [1]: humans.

As for `Cc1ccc(=O)n(-c2ccccc2)c1` [Pirfenidone, 5-Methyl-1-phenylpyridin-2(1H)-one], the DNA synthesis entry in the series on leiomyoma cells and in the series with myometrial cells was “inhibits DNA synthesis” in each case. Moreover, the half-life result in series [1] was “very short”.
